Here are results for 9 compounds from PubChem BioAssay (NCI).

Structures are written as SMILES.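 Growth conditions: 96-well plates. Treatment: test compound, 48 hours, 5 concentrations. Analysis: linear interpolation between bracketing concentrations; unreached endpoints set to highest concentration. TGI denotes the concentration required for complete inhibition of growth.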 Bounds are passed on as bounds.

Holding throughout (assay): growth of human tumour cells (NCI), 48 h
The subject of assay [1] is NCI-H226 lung.
Assay [2] has as its system SNB-19 CNS.
Assay [3] relates to HCT-15 colon.
The test system of assay [4] is HT29 colon.
Assay [5] concerns DU-145 prostate.
The test system of assay [6] is SNB-75 CNS.
Assay [7] has as its system MDA-MB-231 breast.
The subject of assay [8] is TK-10 renal.
Assay [9] deals with OVCAR-4 ovarian.
The subject of assay [10] is ACHN renal.
Assay [11] relates to SF-295 CNS.
Assay [12] has as its system SN12C renal.
For assay [13], the system named is A498 renal.
For assay [14], the system named is HOP-62 NSCLC.
In assay [15] the test system is SF-539 CNS.
The subject of assay [16] is HL-60(TB) leukemia.

Consider `CCCCCCCCCCCCCCCCOCC(CC(F)(F)P(=O)(OCC)OCC)OC(C)=O` (configuration not stated), for which the TGI came out at 28.7 µM in assay [1]; 15.8 µM in assay [2]; 20.2 µM in assay [3]; 35.5 µM in assay [4]; 28.8 µM in assay [5]; 32.9 µM in assay [6]. The TGI in [7] was 30.1 µM; in assay [8], 27.3 µM; in assay [9], 29.3 µM; in assay [10], 27.3 µM; in assay [11] it was 24.4 µM; in assay [12], 44.5 µM. Moreover, in assay [13], the TGI was determined as 25.8 µM.

For the compound `COC(=O)c1sc(=S)sc1SCc1ccc(CSc2sc(=S)sc2C(=O)OC)cc1`, the TGI in assay [1], in assay [2], in assay [3], in assay [4], in assay [5] and in assay [6] was > 100 µM throughout. The TGI in assay [7], in assay [8], in assay [9], in assay [10], in assay [11] and in [12] was > 100 µM throughout. For the same compound, the TGI in [13] and in [14] was > 100 µM in each case.

Consider `CCOC(=O)c1cn2c(n1)sc1c(Cl)c(Cl)ccc12`, for which the TGI in assay [15] was 21.4 µM; in [1], 51.6 µM; in assay [2] it was 98.9 µM; in assay [3], > 100 µM; in assay [4] it was > 45.6 µM; in assay [5], > 100 µM. The TGI in assay [6] is 73.1 µM; in assay [7] it was > 100 µM; in assay [8], > 79.4 µM; in [9], > 100 µM; in assay [10], > 100 µM; in assay [11], > 100 µM. The TGI in assay [12] was 39 µM; in [13] it was > 100 µM; in assay [14], > 51.3 µM.

As for `CC(C)(C)c1cc(C2=NNC(c3ccccc3)C2)cc(C(C)(C)C)c1O` (configuration not stated), the TGI in [15] was found to be 44.7 µM; in assay [1], 32.8 µM; in [2], 36.4 µM; in assay [3], 31.2 µM; in assay [4], 50.3 µM; in assay [5], 30.3 µM. The TGI in assay [6] stood at 25.3 µM; in [7], 27.5 µM; in assay [8], 29.4 µM; in assay [9], 33.2 µM; in [10], 29.8 µM; in assay [11] it was 37.7 µM. Moreover, the TGI in assay [12] worked out at 32.7 µM; in assay [13], 29.7 µM; in assay [14], 33.3 µM.

In the case of `Cc1cccc(N(C(=O)Nc2ccc(Cl)c(Cl)c2)C2=NCC(C)S2)c1` (configuration not stated), the TGI in assay [15], in assay [2], in assay [3], in assay [4], in assay [5] and in [16] was > 100 µM throughout. In addition, the TGI in [6] was > 100 µM; in assay [7], > 100 µM; in assay [8], 80.3 µM; in assay [9] it was > 100 µM; in assay [10], > 100 µM; in [11], > 100 µM. Further, the TGI in assay [12], in assay [13] and in [14] was > 100 µM in each case.

Regarding `CCCCCCC(=O)O[C@H]1CC[C@H]2[C@@H]3CCC4C/C(=N/NC(=O)c5cccc6c(=O)c7ccccc7[nH]c56)C=C(C)[C@]4(C)[C@H]3CC[C@]12C` (some centres not stated), the TGI in assay [15], in [1], in assay [2], in assay [3], in [4] and in [5] was > 25 µM each time. Also, the TGI in assay [16], in assay [6], in [7], in assay [8], in [9] and in assay [10] was > 25 µM throughout. The TGI in assay [11], in [12] and in assay [14] was > 25 µM throughout.

Turning to `Cc1nn(C(=O)c2ccc(Cl)cc2)c2c1C(c1ccccc1[N+](=O)[O-])SC(N)=N2` (configuration not stated), the TGI in assay [15], in assay [1], in assay [2], in assay [3], in [4] and in [5] was > 10 µM throughout. Besides, the TGI in assay [16], in assay [6], in assay [7], in [8], in [9] and in assay [10] was > 10 µM each time. Moreover, the TGI in assay [11], in assay [12] and in assay [14] was > 10 µM throughout.

Take `COc1cc(OC)nc(-n2c(N)c(C#N)c3ccc([N+](=O)[O-])cc3c2=O)n1`: the TGI in assay [15], in assay [2], in assay [3], in assay [4], in [5] and in [16] was > 100 µM throughout. Also, the TGI in assay [6], in [7], in [8], in [9], in [10] and in assay [11] was > 100 µM throughout. For the same compound, the TGI in [12], in assay [13] and in [14] was > 100 µM in each case.

Take `Cc1ccc(N(C(=O)Nc2ccccc2)C2=NCC(C)S2)cc1C` (configuration not stated): the TGI in assay [15] is 48.5 µM; in assay [2], > 100 µM; in assay [3], 44.5 µM; in assay [4] it was 41.9 µM; in assay [5], > 100 µM; in assay [16] it was 63.7 µM. Besides, the TGI is 56.4 µM in [6]; 45 µM in assay [7]; 55.2 µM in [8]; > 100 µM in [9]; > 100 µM in assay [10]; 85.3 µM in assay [11]. Also, the TGI in [12] is 32 µM; in assay [13], 47.9 µM; in [14], > 100 µM.
